# Patent KR20230001519A, “근위 단백질 변형 반응을 이용한 신규한 약물 결합 단백질의 동정” (서울대학교산학협력단, priority 2021, dated 2023)
# Structures can show the parent of a compound that is named as a salt.
# What was measured:
# [1] = tested on: HaloTag protein (할로택 단백질); assay: In vitro competition assay of HaloTag ligand (dansyl-HTL, in-gel fluorescence); format: binding; settings: competition with dansyl-HTL; purified HaloTag 10 μM, compound 10 μM; data not shown
# [2] = tested on: K562 cells (K562 세포); assay: CCK-8 growth inhibition, K562; format: cell-based, human; settings: K562, 72 h
# [3] = tested on: Ba/F3 cells (Ba/F3 세포); assay: CCK-8 growth inhibition, Ba/F3; format: cell-based, mouse; settings: Ba/F3, 72 h
# [4] = target: T1, TOM20-KDABL1 (Homo sapiens, UniProt P00519); assay: In cellulo mitochondrial translocation of HT-TurbID to TOM20-KDABL1; format: cell-based; settings: data not shown
# T1 construct: KDABL1, 아미노산 239-512, Uniprot ID: P00519; expressed in transfected cells
# T1 sequence (P00519 239-512): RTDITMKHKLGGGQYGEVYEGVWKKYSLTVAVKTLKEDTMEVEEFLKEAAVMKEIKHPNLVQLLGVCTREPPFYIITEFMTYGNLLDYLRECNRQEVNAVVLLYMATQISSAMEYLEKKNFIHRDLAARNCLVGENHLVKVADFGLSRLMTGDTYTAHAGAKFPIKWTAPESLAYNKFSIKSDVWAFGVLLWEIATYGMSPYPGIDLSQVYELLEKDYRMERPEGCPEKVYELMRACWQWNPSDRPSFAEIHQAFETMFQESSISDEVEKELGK
# [5] = target: T2, TOM20-HA-KDABL1 (Homo sapiens, UniProt P00519); assay: Proximity biotinylation of TOM20-HA-KDABL1 by HT-TurbID; format: cell-based; settings: HT-TurbID in cytosol; data not shown
# T2 construct: KDABL1, 아미노산 239-512, Uniprot ID: P00519; expressed in transfected cells
# T2 sequence (P00519 239-512): T1 sequence (P00519 239-512)
# [6] = tested on: HT-TurbID stably expressing K562 cells (HT-TurbID를 안정적으로 발현하는 K562 세포주); assay: Biotinylation in K562 cells stably expressing HT-TurbID (streptavidin-HRP western blot); format: cell-based, human
# [7] = tested on: dasatinib binding proteins of K562 cells (K562 세포의 다사티닙 결합 단백질); assay: PROCID mass analysis of biotinylated proteins (dasatinib interactors, group I); format: cell-based, Homo sapiens; settings: K562, 500 nM, 3 h
# [8] = target: T3, SMARCA2 (Homo sapiens, UniProt P51531); assay: PROCID mass analysis, SMARCA2; format: cell-based
# T3 construct: endogenous in cells; host or cells: K562 stably expressing HT-V5-TurbID
# T3 sequence (P51531 whole entry): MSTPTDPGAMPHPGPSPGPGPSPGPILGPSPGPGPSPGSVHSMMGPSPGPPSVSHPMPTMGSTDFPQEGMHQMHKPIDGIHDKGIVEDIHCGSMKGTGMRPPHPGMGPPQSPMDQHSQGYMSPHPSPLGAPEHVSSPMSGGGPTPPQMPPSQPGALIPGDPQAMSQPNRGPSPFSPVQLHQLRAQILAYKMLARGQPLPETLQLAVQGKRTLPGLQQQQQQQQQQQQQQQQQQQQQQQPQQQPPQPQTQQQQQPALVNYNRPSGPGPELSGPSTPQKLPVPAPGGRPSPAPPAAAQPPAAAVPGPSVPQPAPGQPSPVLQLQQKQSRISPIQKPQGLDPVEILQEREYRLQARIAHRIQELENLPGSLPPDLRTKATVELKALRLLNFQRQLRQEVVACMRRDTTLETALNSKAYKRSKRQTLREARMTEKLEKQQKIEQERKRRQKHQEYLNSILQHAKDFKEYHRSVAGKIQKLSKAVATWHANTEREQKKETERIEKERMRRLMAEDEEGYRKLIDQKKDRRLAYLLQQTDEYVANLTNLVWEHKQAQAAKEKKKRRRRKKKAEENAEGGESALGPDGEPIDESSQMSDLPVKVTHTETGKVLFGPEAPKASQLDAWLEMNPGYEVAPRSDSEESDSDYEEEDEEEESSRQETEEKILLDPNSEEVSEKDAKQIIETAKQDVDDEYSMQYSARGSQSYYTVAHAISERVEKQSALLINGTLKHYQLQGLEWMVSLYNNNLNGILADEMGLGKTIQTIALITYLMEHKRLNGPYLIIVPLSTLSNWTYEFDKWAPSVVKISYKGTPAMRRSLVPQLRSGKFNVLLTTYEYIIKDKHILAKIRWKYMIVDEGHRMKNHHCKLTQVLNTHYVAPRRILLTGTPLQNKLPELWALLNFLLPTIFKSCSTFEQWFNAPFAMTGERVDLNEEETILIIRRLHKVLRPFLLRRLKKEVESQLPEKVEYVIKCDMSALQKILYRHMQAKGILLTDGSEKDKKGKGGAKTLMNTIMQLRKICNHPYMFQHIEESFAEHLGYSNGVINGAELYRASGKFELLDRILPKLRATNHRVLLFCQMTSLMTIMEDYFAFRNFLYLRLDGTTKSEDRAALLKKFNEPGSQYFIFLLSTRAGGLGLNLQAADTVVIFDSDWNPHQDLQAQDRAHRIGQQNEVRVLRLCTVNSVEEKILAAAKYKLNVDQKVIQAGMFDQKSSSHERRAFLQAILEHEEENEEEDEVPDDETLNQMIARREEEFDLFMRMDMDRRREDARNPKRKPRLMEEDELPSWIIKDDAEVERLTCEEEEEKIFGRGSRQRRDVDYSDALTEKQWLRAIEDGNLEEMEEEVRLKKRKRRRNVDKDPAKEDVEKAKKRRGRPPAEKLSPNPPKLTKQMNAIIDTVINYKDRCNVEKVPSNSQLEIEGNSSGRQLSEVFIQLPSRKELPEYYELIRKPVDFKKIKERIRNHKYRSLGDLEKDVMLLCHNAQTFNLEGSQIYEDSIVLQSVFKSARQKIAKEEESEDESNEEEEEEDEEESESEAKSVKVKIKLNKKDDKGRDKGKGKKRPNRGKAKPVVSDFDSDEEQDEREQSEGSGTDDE
# [9] = tested on: ABL1; assay: PROCID mass analysis, ABL1; format: cell-based, Homo sapiens; settings: ABL1, K562
# [10] = target: T4, ABL2 (Homo sapiens, UniProt P42684); assay: PROCID mass analysis, ABL2; format: cell-based; settings: ABL2, K562
# T4 construct: endogenous in cells; host or cells: K562 stably expressing HT-V5-TurbID
# T4 sequence (P42684 whole entry): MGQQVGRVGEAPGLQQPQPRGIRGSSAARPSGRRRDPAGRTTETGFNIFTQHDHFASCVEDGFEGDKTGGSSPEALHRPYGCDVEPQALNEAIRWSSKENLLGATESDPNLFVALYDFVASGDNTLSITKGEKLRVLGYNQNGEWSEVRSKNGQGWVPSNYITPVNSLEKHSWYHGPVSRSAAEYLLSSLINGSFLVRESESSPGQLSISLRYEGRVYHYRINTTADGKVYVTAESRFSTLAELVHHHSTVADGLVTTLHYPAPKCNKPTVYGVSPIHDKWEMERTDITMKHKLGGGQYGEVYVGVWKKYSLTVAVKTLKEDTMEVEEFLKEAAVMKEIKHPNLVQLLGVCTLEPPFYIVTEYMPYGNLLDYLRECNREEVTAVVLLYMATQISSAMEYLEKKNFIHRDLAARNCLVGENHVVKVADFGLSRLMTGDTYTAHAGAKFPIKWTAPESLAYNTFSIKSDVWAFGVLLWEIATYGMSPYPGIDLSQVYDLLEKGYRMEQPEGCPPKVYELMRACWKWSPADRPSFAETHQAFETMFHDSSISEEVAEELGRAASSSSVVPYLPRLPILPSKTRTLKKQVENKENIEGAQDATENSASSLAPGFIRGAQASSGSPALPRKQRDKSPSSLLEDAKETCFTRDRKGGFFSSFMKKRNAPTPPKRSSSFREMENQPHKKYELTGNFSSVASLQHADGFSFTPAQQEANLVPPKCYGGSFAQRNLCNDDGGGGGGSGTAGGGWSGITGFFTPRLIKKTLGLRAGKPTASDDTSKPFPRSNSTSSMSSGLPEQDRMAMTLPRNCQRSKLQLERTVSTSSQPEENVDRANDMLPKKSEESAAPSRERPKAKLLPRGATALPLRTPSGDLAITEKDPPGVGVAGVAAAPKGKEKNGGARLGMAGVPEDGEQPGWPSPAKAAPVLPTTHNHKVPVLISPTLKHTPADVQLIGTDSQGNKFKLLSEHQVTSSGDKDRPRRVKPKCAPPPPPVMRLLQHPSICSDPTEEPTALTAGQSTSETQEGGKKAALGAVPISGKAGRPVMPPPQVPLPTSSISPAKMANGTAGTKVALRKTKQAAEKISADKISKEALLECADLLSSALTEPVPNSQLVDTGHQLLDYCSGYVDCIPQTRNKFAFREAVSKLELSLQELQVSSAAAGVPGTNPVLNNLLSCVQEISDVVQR
# [11] = target: T5, BTK (Homo sapiens, UniProt Q06187); assay: PROCID mass analysis, BTK; format: cell-based
# T5 construct: endogenous in cells; host or cells: K562 stably expressing HT-V5-TurbID
# T5 sequence (Q06187 whole entry): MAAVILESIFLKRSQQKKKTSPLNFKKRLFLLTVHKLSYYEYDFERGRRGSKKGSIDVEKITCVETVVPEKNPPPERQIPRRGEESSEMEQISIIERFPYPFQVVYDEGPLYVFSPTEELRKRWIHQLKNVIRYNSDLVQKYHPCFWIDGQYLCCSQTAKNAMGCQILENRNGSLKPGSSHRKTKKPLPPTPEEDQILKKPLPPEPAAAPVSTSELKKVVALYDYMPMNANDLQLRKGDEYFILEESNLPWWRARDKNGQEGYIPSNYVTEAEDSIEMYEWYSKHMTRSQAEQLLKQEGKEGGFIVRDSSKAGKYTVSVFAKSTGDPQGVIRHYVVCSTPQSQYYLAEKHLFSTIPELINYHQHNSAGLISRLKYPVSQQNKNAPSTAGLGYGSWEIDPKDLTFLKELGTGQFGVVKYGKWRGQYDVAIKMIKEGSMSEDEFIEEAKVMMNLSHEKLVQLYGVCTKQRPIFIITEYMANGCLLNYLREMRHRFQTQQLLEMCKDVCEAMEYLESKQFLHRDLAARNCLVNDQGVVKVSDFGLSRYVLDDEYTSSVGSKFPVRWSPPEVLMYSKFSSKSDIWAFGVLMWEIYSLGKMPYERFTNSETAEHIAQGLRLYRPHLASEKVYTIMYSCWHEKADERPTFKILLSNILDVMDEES
# [12] = target: T6, RIOK1 (Homo sapiens, UniProt Q9BRS2); assay: PROCID mass analysis, RIOK1; format: cell-based; settings: RIOK1, K562
# T6 construct: endogenous in cells; host or cells: K562 stably expressing HT-V5-TurbID
# T6 sequence (Q9BRS2 1-568): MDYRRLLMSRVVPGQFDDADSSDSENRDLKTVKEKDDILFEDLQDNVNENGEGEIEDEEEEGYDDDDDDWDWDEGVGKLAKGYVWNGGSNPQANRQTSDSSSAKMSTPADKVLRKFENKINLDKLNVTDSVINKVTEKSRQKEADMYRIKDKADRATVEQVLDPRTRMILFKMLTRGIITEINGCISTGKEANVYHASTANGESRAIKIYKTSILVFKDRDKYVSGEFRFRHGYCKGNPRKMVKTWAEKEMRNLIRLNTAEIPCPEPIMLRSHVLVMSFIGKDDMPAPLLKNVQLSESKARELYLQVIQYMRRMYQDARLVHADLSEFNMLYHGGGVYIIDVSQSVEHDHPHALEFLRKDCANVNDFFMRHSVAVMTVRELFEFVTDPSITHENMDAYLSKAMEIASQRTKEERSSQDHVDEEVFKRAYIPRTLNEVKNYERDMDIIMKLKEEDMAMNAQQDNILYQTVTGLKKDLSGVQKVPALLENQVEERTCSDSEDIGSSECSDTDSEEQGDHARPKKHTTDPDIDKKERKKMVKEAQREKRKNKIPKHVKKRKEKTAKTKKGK
# [13] = target: T7, BTK (Mus musculus, UniProt P35991); assay: PL-IP biotinylation of BTK-mCherry; format: cell-based
# T7 sequence (P35991 whole entry): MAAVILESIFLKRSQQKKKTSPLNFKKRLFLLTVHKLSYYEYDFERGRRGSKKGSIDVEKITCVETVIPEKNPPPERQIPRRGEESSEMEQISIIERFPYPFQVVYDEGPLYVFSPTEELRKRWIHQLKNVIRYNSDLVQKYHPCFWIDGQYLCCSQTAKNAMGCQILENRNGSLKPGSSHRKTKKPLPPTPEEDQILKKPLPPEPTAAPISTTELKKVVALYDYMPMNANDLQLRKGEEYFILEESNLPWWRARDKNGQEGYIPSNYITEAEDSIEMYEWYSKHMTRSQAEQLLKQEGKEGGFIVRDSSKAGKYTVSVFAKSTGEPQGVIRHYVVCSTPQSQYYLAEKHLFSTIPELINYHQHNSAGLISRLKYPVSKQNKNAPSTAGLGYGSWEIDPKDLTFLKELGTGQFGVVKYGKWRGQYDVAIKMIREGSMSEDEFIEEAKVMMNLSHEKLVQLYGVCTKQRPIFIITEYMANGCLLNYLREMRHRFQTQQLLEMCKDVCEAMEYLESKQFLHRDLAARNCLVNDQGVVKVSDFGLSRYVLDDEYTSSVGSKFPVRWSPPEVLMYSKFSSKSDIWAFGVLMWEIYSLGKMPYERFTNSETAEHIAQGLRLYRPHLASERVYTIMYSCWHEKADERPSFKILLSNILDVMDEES
# [14] = target: T8, CSK (Homo sapiens, UniProt P41240); assay: PL-IP biotinylation of CSK-EGFP; format: cell-based
# T8 sequence (P41240 whole entry): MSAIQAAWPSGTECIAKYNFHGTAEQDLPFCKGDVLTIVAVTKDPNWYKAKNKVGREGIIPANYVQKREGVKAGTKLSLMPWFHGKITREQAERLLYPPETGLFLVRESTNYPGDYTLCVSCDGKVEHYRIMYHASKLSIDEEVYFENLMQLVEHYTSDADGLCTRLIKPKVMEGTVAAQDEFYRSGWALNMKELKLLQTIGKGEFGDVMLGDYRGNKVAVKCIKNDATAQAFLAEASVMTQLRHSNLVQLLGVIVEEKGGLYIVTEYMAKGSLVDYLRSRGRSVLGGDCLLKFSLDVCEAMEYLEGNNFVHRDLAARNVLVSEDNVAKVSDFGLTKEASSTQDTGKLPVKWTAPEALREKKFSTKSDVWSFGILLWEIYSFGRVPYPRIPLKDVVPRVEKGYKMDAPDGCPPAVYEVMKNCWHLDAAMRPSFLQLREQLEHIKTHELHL
# [15] = target: T7, BTK; assay: In cellulo translocation assay, BTK-mCherry to HT-TurbID-MoA; format: cell-based; design: host or cells: U2OS (translocation, A16; reproduced in COS-7)
# [16] = target: T8, CSK; assay: In cellulo translocation assay, CSK-EGFP to HT-TurbID-MoA; format: cell-based; design: host or cells: U2OS (translocation, A17; reproduced in COS-7)
# [17] = target: T8, CSK; assay: PROCID mass analysis, CSK; format: cell-based; design: endogenous in cells; host or cells: K562 stably expressing HT-V5-TurbID
# [18] = target: T9, KDABL1 (Homo sapiens, UniProt P00519); assay: Proximity biotinylation of HA-KDABL1 by HT-TurbID (PL-IP, western blot); format: cell-based; design: KDABL1, 아미노산 239-512, Uniprot ID: P00519; expressed in transfected cells; host or cells: HEK293T (PL-IP, A6); settings: HEK293T, 500 nM, 3 h; biotin 100 μM, 30 min; SA-HRP western blot
# T9 sequence (P00519 239-512): T1 sequence (P00519 239-512)
# [19] = target: T9, KDABL1; assay: In cellulo translocation assay of KDABL1 to mitochondrial HT-TurbID-MoA (confocal); format: cell-based; design: KDABL1, 아미노산 239-512, Uniprot ID: P00519; expressed in transfected cells; host or cells: U2OS (translocation, A4); settings: U2OS, 500 nM, 3 h
# [20] = target: T10, ABDSMARCA2 (Homo sapiens, UniProt P51531); assay: Translocation and PL-IP assays with ATP binding domain of SMARCA2; format: cell-based; settings: concluded from translocation of ABDSMARCA2 to mitochondria-targeted HT-TurbID
# T10 construct: ABD SMARCA2(736-901aa 헬리카제-ATP 결합 도메인)-HA; expressed in transfected cells; host or cells: HEK293-AD
# T10 sequence (P51531 736-901): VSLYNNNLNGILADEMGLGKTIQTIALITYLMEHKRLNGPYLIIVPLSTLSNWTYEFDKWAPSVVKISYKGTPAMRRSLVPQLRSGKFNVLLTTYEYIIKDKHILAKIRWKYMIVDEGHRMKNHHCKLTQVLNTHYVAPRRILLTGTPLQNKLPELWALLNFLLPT
# [21] = target: T8, CSK; design: host or cells: U2OS (translocation, A17; reproduced in COS-7); HEK293T (PL-IP, A19); settings: in vitro characterization; cited from earlier work
# [22] = HEK293T, 3 h, SA-HRP western blot
smiles,measurement,setting,value
"Cc1nc(Nc2ncc(C(=O)Nc3c(C)cccc3Cl)s2)cc(N2CCN(CCOC(=O)NCCOCCOCCOCCCCCCCl)CC2)n1 [DA3, 2-(4-(6-((5-((2-chloro-6-methylphenyl)carbamoyl)thiazol-2-yl)amino)-2-methylpyrimidin-4-yl)piperazin-1-yl)ethyl(2-(2-(2-((6-chlorohexyl)oxy)ethoxy)ethoxy)ethyl)carbamate trifluoroacetate salt]",binding to HaloTag,[1],할로택에 잘 결합한다
same,GI50,[2],서브마이크로몰 범위
same,GI50,[3],서브마이크로몰 범위
"Cc1nc(Nc2ncc(C(=O)Nc3c(C)cccc3Cl)s2)cc(N2CCN(CCOC(=O)NCCOCCOCCOCCOCCOCCCCCCCl)CC2)n1 [DA5, 2-(4-(6-((5-((2-chloro-6-methylphenyl)carbamoyl)thiazol-2-yl)amino)-2-methylpyrimidin-4-yl)piperazin-1-yl)ethyl(21-chloro-3,6,9,12,15-pentaoxahenicosyl)carbamate trifluoroacetate salt]",binding to HaloTag,[1],할로택에 잘 결합한다
same,GI50,[2],서브마이크로몰 범위
same,GI50,[3],서브마이크로몰 범위
same,mitochondrial translocation of HT-TurbID to TOM20-KDABL1,[4],미토콘드리아 전위가 확인되었다
same,biotinylation of TOM20-HA-KDABL1 by HT-TurbID,[5],재현 가능한 DA5 의존성 바이오틴화를 관찰
same,biotinylation reaction,[6],강력한 바이오틴화 반응
same,streptavidin-HRP western blot pattern compared with DA and DMSO,[6],미묘하게 차이가 있었다
same,number of proteins reproducibly biotinylated only on DA5 treatment,"[7]; biotin 50 μM 30 min, P < 0.05, Log2(FC) > 1.2",33
same,number of proteins selected as dasatinib interactors (group I),[7]; includes SMARCA2,34
same,biotinylation by HT-TurbID in DA5 treated sample,"[8]; SMARCA2, K562",고도로 바이오틴화
same,fold change (FC) of biotinylation,"[8]; SMARCA2, K562, DA5 treated vs control, highest fold change",5.14
same,biotinylation by HT-TurbID in DA5 treated sample,[9],고도로 바이오틴화
same,biotinylation by HT-TurbID in DA5 treated sample,[10],고도로 바이오틴화
same,biotinylation by HT-TurbID in DA5 treated sample,[11]; K562,고도로 바이오틴화
same,biotinylated lysine residues,[11]; MS analysis,다수의 라이신 잔기가 DA5 처리된 HT-TurbID에 의해 바이오틴화 된다
same,biotinylation by HT-TurbID in DA5 treated sample,[12],고도로 바이오틴화
same,DA5-dependent biotinylation,"[13]; BTK, HT-TurbID-MoA instead of HT-TurbID, data not shown",그대로 재현되었다
same,co-purification of HT-TurbID with bait protein,"[13]; BTK-mCherry, anti-HA pulldown",DA5 처리 샘플에서만 미끼 단백질과 공동 정제되었다
same,biotinylation of enriched BTK-mCherry,[13]; [22],DA5 처리 하에서만 바이오틴화되었다
same,DA5-dependent biotinylation,"[14]; CSK, HT-TurbID-MoA instead of HT-TurbID, data not shown",그대로 재현되었다
same,co-purification of HT-TurbID with bait protein,"[14]; CSK-EGFP, anti-HA pulldown",DA5 처리 샘플에서만 미끼 단백질과 공동 정제되었다
same,biotinylation of enriched CSK-EGFP,[14]; [22],DA5 처리 하에서만 바이오틴화되었다
same,DA5-dependent translocation,"[15]; BTK, COS-7, data not shown",그대로 재현되었다
same,Pearson's correlation coefficient,"[15]; BTK, U2OS, after DA5 treatment",급격히 증가
same,translocation from cytosol to mitochondria,"[15]; BTK-mCherry, U2OS, 500 nM, 3 h",세포질에서 미토콘드리아로 전위되는 것이 확인되었다
same,DA5-dependent translocation,"[16]; CSK, COS-7, data not shown",그대로 재현되었다
same,Pearson's correlation coefficient,"[16]; CSK, U2OS, after DA5 treatment",급격히 증가
same,translocation from cytosol to mitochondria,"[16]; CSK-EGFP, U2OS, 500 nM, 3 h",세포질에서 미토콘드리아로 전위되는 것이 확인되었다
same,biotinylation by HT-TurbID in DA5 treated sample,[17]; K562,고도로 바이오틴화
same,biotinylated lysine residues,[17]; MS analysis,다수의 라이신 잔기가 DA5 처리된 HT-TurbID에 의해 바이오틴화 된다
same,biotinylation of KDABL1 by HT-TurbID,[18],DA5로 처리되었을 때만 KDABL1이 HT-TurbID에 의해 바이오틴화 된다
same,translocation of KDABL1 from cytosol to mitochondria,[19],KDABL1의 효율적인 전위
Cc1nc(Nc2ncc(C(=O)Nc3c(C)cccc3Cl)s2)cc(N2CCN(CCO)CC2)n1 [다사티닙],biotinylation reaction,[6],강력한 바이오틴화 반응
same,physical binding affinity of ABDSMARCA2 for dasatinib,[20],물리적 결합 친화성을 가지고 있으며
same,binding affinity for dasatinib,[21],다사티닙에 대한 결합 친화력이 있음
